Measurements as given in patent publication US20140041337A1, “Food Packaging Method” (Kureha Corporation, priority 2007, published 2014).

System: bacteria
Experiment: Summary of bacterial counting, Tables 1 to 4
Type: cell-based
Settings: carbon dioxide gas 10 to 45 cm^3 per 100 g of the food (volume at 0° C. and 1 atm)
Experimental: The bacteria counts were determined as follows. The sliced beef was diluted with a tenfold amount of sterile physiological saline to give a test liquid. One (1) ml of the test liquid was placed in sterile Petri dishes. For the viable bacteria count, a standard agar medium (manufactured by NISSUI PHARMACEUTICAL CO., LTD.) was added and the bacteria were cultured at 37° C. for 2 days. For the coliform bacteria count, a desoxycholate agar medium (manufactured by NISSUI PHARMACEUTICAL CO., LTD.) was added and the bacteria were cultured at 37° C. for 1 day. The colonies that grew were counted. The psychrophilic bacteria count was determined as follows. The sliced pork was diluted with a tenfold amount of sterile physiological saline to give a test liquid. One (1) ml of the test liquid was placed in sterile Petri dishes. A YGA agar medium (manufactured by NISSUI PHARMACEUTICAL CO., LTD.) was added and the bacteria were cultured at 10° C. for 5 days. The colonies that grew were counted.

O=C=O [carbon dioxide gas, carbon dioxide]
bacterial growth: inhibits bacterial growth
